# Source: paper PMC11696576, “Next generation thiazolyl ketone inhibitors of cytosolic phospholipase A2 α for targeted cancer therapy” (Nature Communications, 2025)
# Values joined by “and” are separate entries in the source; they are usually repeats but may differ in a detail not shown here. Equal entries are not always repeated. Where two headings read alike, the source gives them in different places.
# Test system: panel of 66 cancer cell lines
# Test: cancer cell line screen, proliferation assay (ATPlite, 72 h)
# Format: cell-based, human
# Settings: for raw signal, dose-response (Figure S7a): rep1, rep2, listed as AVX235; for IC50: Homo sapiens
# From the text: Targeting specific molecular vulnerabilities in cancer is considered a key approach to reducing the adverse effects of chemotherapy. However, the events that govern the susceptibility to suppression of the cPLA2α in cancer remain largely unexplored. We therefore took the approach of screening the antiproliferative activity of AVX420 in a panel of 66 cancer cell lines (hereafter referred to as the cancer cell line screen or CCLS) to allow us to investigate molecular and genetic vulnerabilities to the drug.
# Screening of compound activities in 66 cancer cell lines was carried out at the Netherlands Translation Research Center. Briefly, proliferation assays were performed 72 h after compound addition using ATPlite 1step reagent (Perkin Elmer). IC50s calculated by non-linear regression analysis were used as a measure of compound activity for investigating associations with genetic factors. A complete description of the laboratory and data analysis methods are available in the Supplementary Information file (Supplemental Methods: Cancer Cell Line Screening).
# Cancer cell line screening
# Cell proliferation assays
# All cell lines were from the American Type Culture Collection (ATCC) Manassas, Virginia (US) and maintained under ATCC-recommended protocols and within 9 pas- […]
# DMSO at -80°C until one hour before use. Cells exposed within one hour after thaw-ing of the compound stocks. Final compound concentration range in the assay was 10 […]
# cated by supplier. Compounds were dissolved in 100 % DMSO and stored at room temperature. Final concentration of the reference compounds in the assay was 3.16x10-5 M to 3.16x10-9 M. The final DMSO concentration during incubation was […]
# Cell lines were plated in Advanced RPMI 1640 (Gibco, ref 12633-012) cell culture medium, containing 1% Glutamax solution (Gibco, ref 35050-038), 0.4% Pen Strep solution (Gibco, ref 15140-122) and bovine serum. The cPLA2α inhibitors were tested in 0.5% bovine serum (HyClone, ref SH30072.03) with the exception of769-P, A-204, BT-549, SR, T98G, which were tested in the presence of 1.0% serum and A-704 and LNCaP FGS, which were tested in the in the presence of 10% serum. Reference com-pounds were all tested in the presence of 10% bovine serum.
# Cells were dispensed in a 384-well plate, at a concentration of 200 - 3200 cells per well, depending on the cell line, in 45 μL medium. Plated cells were incubated in a humidified atmosphere of 5% CO2 at 37 °C. After 24 hours, 5 μL of compound dilu-tion was added and plates were further incubated for another 72 hours. After 72 hours, 25 μL of ATPlite 1Step™ (PerkinElmer) solution was added to each well, and subse-quently shaken for 2 minutes. After 10 minutes of incubation in the dark, the lumines-cence was recorded on an Envision multimode reader (PerkinElmer).
# Cell growth control. The cellular doubling times of all cell lines are calculated from the t = 0 hours and t = 72 hours growth signals of the untreated cells. If the doubling time is out of specification (0.5 – 2.0 times deviating from historic average) the assay […]
# IC50s were calculated by non-linear regression using IDBS XLfit 5. The percentage growth after 72h (%-growth) was calculated as follows: 100% x (luminescence t = 72h / luminescence untreated,t=72h). This was fitted to the 10log compound concentration (conc) by a 4-parameter logistics curve: %-growth = bottom + (top – bottom) / (1+ 10(logIC50 – conc)*hill)), where hill is the Hill-coefficient, and bottom and top the asymptotic mini-mum and maximum cell growth that the compound allows in that assay.
# All analysis were performed in the statistical software package R and visualized using GraphPad Prism version 10.0 .0
smiles,measurement,setting,value
CCCCCCCCc1ccc(OCC(=O)c2nc(C(=O)OC)cs2)cc1 [GK470],average panel 10logIC50,"10log of IC50 in nM, panel average",4.20
same,pIC50,"769P, kidney","4,709"
same,pIC50,"786O, kidney","4,868"
same,pIC50,"A172, central_nervous_system","4,701"
same,pIC50,"A204, soft_tissue","4,858"
same,pIC50,"A375, skin","4,792"
same,pIC50,"A427, lung","4,933"
same,pIC50,"A498, kidney","4,604"
same,pIC50,"A549, lung","4,718"
same,pIC50,"ACHN, kidney","4,677"
same,pIC50,"AN3CA, endometrium","4,738"
same,pIC50,"AU565, breast","4,915"
same,pIC50,"AsPC1, pancreas","4,828"
same,pIC50,"BT20, breast","4,526"
same,pIC50,"BT549, breast","4,643"
same,pIC50,"BxPC3, pancreas","4,719"
same,pIC50,"C33A, cervix","4,835"
same,pIC50,"CAL27, upper_aerodigestive_tract","4,767"
same,"raw signal, dose-response (Figure S7a)","CCRF-CEM, Log10 M -4",6827 and 7267
same,"raw signal, dose-response (Figure S7a)","CCRF-CEM, Log10 M -6",6001427 and 6137653
same,"raw signal, dose-response (Figure S7a)","CCRF-CEM, Log10 M -6.5",6250880 and 6122947
same,"raw signal, dose-response (Figure S7a)","CCRF-CEM, Log10 M -7",6208933 and 6388787
same,"raw signal, dose-response (Figure S7a)","CCRF-CEM, Log10 M -7.5",5662213 and 5677453
same,"raw signal, dose-response (Figure S7a)","CCRF-CEM, Log10 M -8",5954640 and 6349707
same,pIC50,"COLO829, unknown","4,775"
same,pIC50,"Daoy, central_nervous_system","4,799"
same,pIC50,"DoTc24510, cervix","4,777"
same,pIC50,"FaDu, upper_aerodigestive_tract","4,794"
same,pIC50,"HCT15, large_intestine","4,921"
same,pIC50,"HCT116, large_intestine","4,798"
same,IC50,"769-P, read-out: IC50",19.6 µM
same,IC50,"786-0, 786-O, read-out: IC50",13.6 µM
same,IC50,"72 h, panel average, 72 h, read-out: average IC50 in the cancer cell line screen",16.3 µM
same,IC50,"A 172, A-172, read-out: IC50",19.9 µM
same,IC50,"A204, A-204, read-out: IC50",13.9 µM
same,IC50,"A388, cervix, read-out: pIC50 (converted)",14.5 µM
same,IC50,"A388, read-out: IC50",14.5 µM
same,IC50,"A498, A-498, read-out: IC50",24.9 µM
same,IC50,"A549, A-549, read-out: IC50",19.1 µM
same,IC50,"A704, A704, kidney, read-out: pIC50 (converted)",34 µM
same,IC50,"A704, A-704, read-out: IC50",> 100 µM
same,IC50,"A-375, A375, read-out: IC50",16.1 µM
same,IC50,"A-427, A-427, read-out: IC50",11.7 µM
same,IC50,"ACHN, read-out: IC50",21.1 µM
same,IC50,"AN3-CA, AN3 CA, read-out: IC50",18.3 µM
same,IC50,"ASPC1, AsPC-1, read-out: IC50",14.8 µM
same,IC50,"AU565, AU-565, read-out: IC50",12.2 µM
same,IC50,"BT-20, BT-20, read-out: IC50",29.8 µM
same,IC50,"BT-549, BT-549, read-out: IC50",22.7 µM
same,IC50,"BXPC-3, BxPC-3, read-out: IC50",19.1 µM
same,IC50,"C-33-A, C-33 A, read-out: IC50",14.6 µM
same,IC50,"CAL-27, CAL 27, read-out: IC50",17.1 µM
same,IC50,"CCRF-CEM, CCRFCEM, blood, read-out: pIC50 (converted)",11.7 µM
same,IC50,"CCRF-CEM, read-out: IC50",11.7 µM
same,IC50,"COLO 205, COLO 205, read-out: IC50",18.5 µM
same,IC50,"COLO-829, COLO 829, read-out: IC50",16.8 µM
same,IC50,"DLD-1, DLD1, large_intestine, read-out: pIC50 (converted)",13.8 µM
same,IC50,"DLD-1, DLD-1, read-out: IC50",13.8 µM
same,IC50,"DU-145, DU 145, read-out: IC50",19.3 µM
same,IC50,"Daoy, read-out: IC50",15.9 µM
same,IC50,"DoTc2-4510, DoTc2 4510, read-out: IC50",16.7 µM
same,IC50,"FaDu, read-out: IC50",16.1 µM
same,IC50,"HCT-15, HCT-15, read-out: IC50",12 µM
same,IC50,"HCT-116, HCT 116, read-out: IC50",15.9 µM
same,IC50,"Hs-578T, Hs 578T, read-out: IC50",13.7 µM
same,IC50,"J82, J82, read-out: IC50",15.8 µM
same,IC50,"Jurkat E6.1, Jurkat E6.1, read-out: IC50",12.5 µM
same,IC50,"K562, K-562, read-out: IC50",10.9 µM
same,IC50,"KU812, KU812, read-out: IC50",10.4 µM
same,IC50,"LNCaP, LNCaP FGC, read-out: IC50",> 100 µM
same,IC50,"LS174T, LS 174T, read-out: IC50",13 µM
same,IC50,"LoVo, read-out: IC50",19.3 µM
same,IC50,"MCF7, MCF7, read-out: IC50",12.7 µM
same,IC50,"MG-63, MG63, bone, read-out: pIC50 (converted)",20.4 µM
same,IC50,"MG-63, MG-63, read-out: IC50",20.4 µM
same,IC50,"MIA PaCa-2, MIA PaCa-2, read-out: IC50",10.9 µM
same,IC50,"MOLT-4, MOLT-4, read-out: IC50",12 µM
same,IC50,"MeWo, read-out: IC50",17.3 µM
same,IC50,"NCI-H82, NCI-H82, read-out: IC50",13.7 µM
same,IC50,"NCI-H460, NCI-H460, read-out: IC50",22.5 µM
same,IC50,"OVCAR-3, OVCAR-3, read-out: IC50",14.3 µM
same,IC50,"PA-1, PA-1, read-out: IC50",11.6 µM
same,IC50,"RKO, read-out: IC50",8.87 µM
same,IC50,"RPMI-7951, RPMI-7951, read-out: IC50",16.2 µM
same,IC50,"RT-4, RT4, read-out: IC50",16.5 µM
same,IC50,"SHP77, SHP-77, read-out: IC50",11.9 µM
same,IC50,"SJCRH30, read-out: IC50",18.4 µM
